Experimental findings from patent US7317025B2, “Non-peptidic NPY Y2 receptor inhibitors” (Johnson & Johnson Pharmaceutical Research & Development, LLC, priority 2003, dated 2008) are described below.

Where two headings read alike, the source gives them in different places.

For this test, the target named is T1, Y2 receptors (Homo sapiens, UniProt P49146).
T1 construct: KAN-Ts endogenously expressing Y2 receptors; endogenous in cells; host or cells: KAN-Ts cells (membrane preparation)
T1 sequence (P49146 1-381): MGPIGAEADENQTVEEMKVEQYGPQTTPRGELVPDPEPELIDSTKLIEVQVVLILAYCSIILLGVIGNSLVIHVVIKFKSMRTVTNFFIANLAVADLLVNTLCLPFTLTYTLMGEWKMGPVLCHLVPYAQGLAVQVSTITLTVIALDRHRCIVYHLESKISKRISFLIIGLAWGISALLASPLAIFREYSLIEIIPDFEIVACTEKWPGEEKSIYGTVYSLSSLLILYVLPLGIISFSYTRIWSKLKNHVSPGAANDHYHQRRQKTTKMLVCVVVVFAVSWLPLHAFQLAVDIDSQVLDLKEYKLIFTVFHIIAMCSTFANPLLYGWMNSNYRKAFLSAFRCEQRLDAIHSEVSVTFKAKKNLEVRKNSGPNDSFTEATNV
Put plainly: Radioligand binding assay, [125I]PYY, KAN-Ts membranes. As to the method: Radioligand Binding Assay
KAN-Ts endogenously expressing Y2 receptors were used for the radioligand binding assay. Cells were grown to confluence on 150 cm^2 tissue culture plates, washed with phosphate-buffered saline (PBS), and scraped into 50 mL tubes. After centrifugation, the supernatant was aspirated, and the pellets frozen and stored at −80° C. Thawed pellets were homogenized with a polytron tissue grinder for 15 sec in 20 mM Tris-HCl, 5 mM EDTA. The homogenate was centrifuged at 800×g for 5 min and the collected supernatant was recentrifuged at 25000×g for 25 min. The resulting pellet was resuspended in binding buffer (20 mM HEPES, 120 mM NaCl, 0.22 mM KH2PO4, 1.3 mM CaCl2, 0.8 mM MgSO4). Membranes were incubated with [^125I]PYY (80 pM) in the presence or absence of test compound for 1 h at rt. The reaction was stopped by filtration through GF/C filter plates pre-soaked in 0.3% polyethylenimine and subsequently washed with Tris 50 mM, 5 mM EDTA buffer. Plates were dried for 1 h in a 55° C. oven, scintillation fluid was added and the radioactivity was counted in a Packard TopCount. Specific binding to the NPY receptor subtypes was determined by radioactivity that was bound in the presence of […] NPY. Each binding experiment was repeated three to eight times, each in duplicate. IC50 values (i.e. concentration of unlabelled peptide or antagonist required to compete for 50% of specific binding to the radioligand) were calculated using the GraphPad Prism software (GraphPad Software Inc., San Diego Calif.) with a fit to a sigmoidal dose response curve. Data were expressed as pIC50 values where pIC50=−log IC50.

Where [1] appears, read: membranes of KAN-Ts cells endogenously expressing Y2 receptors, [125I]PYY (80 pM), 1 h at rt.

`CC(=O)N1CCc2ccc(N(C(=O)/C=C/c3ccccc3)C3CCN(C(=O)c4ccccc4)CC3)cc21` [Example 39, trans-N-(1-Acetyl-2,3-dihydro-1H-indol-6-yl)-N-(1-benzoyl-piperidin-4-yl)-3-phenyl-acrylamide] came in with an IC50 of 29 µM.
`CC(=O)N1CCc2ccc(N(C(=O)/C=C/c3ccccc3)C3CCCN(Cc4ccccc4)C3)cc21` (stereo not drawn) [Example 45, trans-N-(1-Acetyl-2,3-dihydro-1H-indol-6-yl)-N-(1-benzyl-piperidin-3-yl)-3-phenyl-acrylamide] had an IC50 under setting [1] of 16 µM.
On the same count and under the same terms, the same measure for `CC(=O)N1CCc2ccc(N(C(=O)/C=C/c3ccccc3)C3CCN(Cc4ccccc4)C3)cc21` (stereo not drawn) [Example 46, trans-N-(1-Acetyl-2,3-dihydro-1H-indol-6-yl)-N-(1-benzyl-pyrrolidin-3-yl)-3-phenyl-acrylamide]: 18 µM.
Still for that read-out and setting: as for `CC(=O)N1CCc2ccc(N(CCCNCc3ccccc3)C(=O)/C=C/c3ccccc3)cc21` [Example 47, trans-N-(1-Acetyl-2,3-dihydro-1H-indol-6-yl)-N-(3-benzylamino-propyl)-3-phenyl-acrylamide], the figure is 12 µM; as for `C=CCN(CCCN(C(=O)/C=C/c1ccccc1)c1ccc2c(c1)N(C(C)=O)CC2)Cc1ccccc1` [Example 48, trans-N-(1-Acetyl-2,3-dihydro-1H-indol-6-yl)-N-[3-(allyl-benzyl-amino)-propyl]-3-phenyl-acrylamide], 12 µM.
